Test results reported in US5972937A, “Heterocyclic compounds possessing 5HT2C receptor antagonist activity” (SmithKline Beecham p.l.c., priority 1995, dated 1999).

System: MCPP-induced Hypolocomotion
Test: Reversal of MCPP-induced Hypolocomotion
Assay type: in vivo
Conditions: po, procedure of WO 94/04533, read-out: ID50 (the source's name)
Method: Reversal of MCPP-induced Hypolocomotion
Compounds were tested following the procedure outlined in WO 94/04533. The compound of example 8 has an ID50 of 10.0 mg/kg p.o.

Compound: CSc1cc2c(cc1C(F)(F)F)N(C(=O)Nc1cccc(C(=O)NCCN(C)C)c1)CC2 [Example 8, 5-Methylthio-6-trifluoromethyl-1-[3-[(2-dimethylaminoethyl)carbamoyl]phenylcarbamoyl]indoline]
- ED50: 10 mg/kg
